Measured values reported in ChEMBL document CHEMBL1201862, “PubChem BioAssay data set” (2004).
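Interpolation was linear, between the two tested concentrations surrounding the appropriate level; five concentrations were tested over 48 hours in 96-well plates. GI50 marks 50% less growth.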 Activity calls are given as the source filed them. Cut-off read from the data, not from the text of the source: active = GI50 up to about 1.1 µM and inactive = higher.

Columns and labels:
Test in all cases: inhibition of tumour cell growth, NCI panel, 48 h
786-0 = tested on: 786-0
COLO 205 = tested on: COLO 205
HCT-116 = tested on: HCT-116
HCT-15 = tested on: HCT-15
HOP-62 = tested on: HOP-62
KM12 = tested on: KM12
MDA-MB-435 = tested on: MDA-MB-435
MDA-N = tested on: MDA-N
NCI-H23 = tested on: NCI-H23
NCI-H460 = tested on: NCI-H460
NCI-H522 = tested on: NCI-H522
NCI/ADR-RES = tested on: NCI/ADR-RES
OVCAR-5 = tested on: OVCAR-5
RPMI-8226 = tested on: RPMI-8226
SF-268 = tested on: SF-268
SF-539 = tested on: SF-539
SK-MEL-2 = tested on: SK-MEL-2
SN12C = tested on: SN12C
SNB-19 = tested on: SNB-19
U-251 = tested on: U-251

Row | SMILES | GI50 (786-0) | GI50 (COLO 205) | GI50 (HCT-116) | GI50 (HCT-15) | GI50 (HOP-62) | GI50 (KM12) | GI50 (MDA-MB-435) | GI50 (MDA-N) | GI50 (NCI-H23) | GI50 (NCI-H460) | GI50 (NCI-H522) | GI50 (NCI/ADR-RES) | GI50 (OVCAR-5) | GI50 (RPMI-8226) | GI50 (SF-268) | GI50 (SF-539) | GI50 (SK-MEL-2) | GI50 (SN12C) | GI50 (SNB-19) | GI50 (U-251)
1 | CCN1C(=O)/C(=C\Nc2ccccc2)S/C1=N/Nc1ncc(CC(=O)Nc2ccccc2C)s1 | > 100 µM (inactive) | > 100 µM (inactive) | > 100 µM (inactive) | > 100 µM | > 100 µM (inactive) | 74 µM (inactive) | > 100 µM (inactive) | > 100 µM (inactive) | > 100 µM (inactive) | 29.1 µM (inactive) | 63.8 µM (inactive) | 45 µM (inactive) | > 100 µM (inactive) | 36.5 µM (inactive) | 88.5 µM (inactive) | > 100 µM (inactive) | > 100 µM (inactive) | > 100 µM (inactive) | > 100 µM (inactive) | 60.5 µM (inactive)
2 | CNc1ncnc(Sc2nc(N)nc3[nH]cnc23)c1[N+](=O)[O-] | 0.583 µM (active) | 2.13 µM (inactive) | 0.39 µM (active) | 1.54 µM | 0.675 µM (active) | 2.64 µM (inactive) | 0.48 µM (active) | 0.552 µM (active) | 1.21 µM (inactive) | 0.552 µM (active) | 0.635 µM (active) | 0.427 µM (active) | 2.25 µM (inactive) | 0.15 µM (active) | 0.566 µM (active) | 5.09 µM (inactive) | 0.634 µM (active) | 0.933 µM (active) | 35.6 µM (inactive) | 4.42 µM (inactive)
3 | Cc1cc2ccccc2n1CC(=O)NCC(C)C | > 100 µM (inactive) | > 100 µM (inactive) | > 100 µM (inactive) | > 100 µM | > 100 µM (inactive) | > 100 µM (inactive) | > 100 µM (inactive) | > 100 µM (inactive) | > 100 µM (inactive) | > 100 µM (inactive) | > 100 µM (inactive) | > 100 µM (inactive) | > 100 µM (inactive) | > 100 µM (inactive) | > 100 µM (inactive) | > 100 µM (inactive) | > 100 µM (inactive) | > 100 µM (inactive) | > 100 µM (inactive) | > 100 µM (inactive)
4 | CCCCN(CCCC)C(=C(C(Cl)=C(Cl)Cl)[N+](=O)[O-])N(CCCC)CCCC | > 100 µM (inactive) | > 100 µM (inactive) | 67.9 µM (inactive) | 98.6 µM | > 100 µM (inactive) | 72.1 µM (inactive) | > 100 µM (inactive) | > 100 µM (inactive) | 82.2 µM (inactive) | 89.5 µM (inactive) | 48.3 µM (inactive) | > 100 µM (inactive) | 85.5 µM (inactive) | 18.7 µM (inactive) | > 100 µM (inactive) | > 100 µM (inactive) | 80.2 µM (inactive) | > 100 µM (inactive) | > 100 µM (inactive) | 45.9 µM (inactive)
5 | COc1cc2cc(C(=O)N3CC(CCl)c4c3cc(N)c3ccccc43)[nH]c2c(OC)c1OC (stereo not given) | < 0.01 µM (active) | < 0.01 µM (active) | < 0.01 µM (active) | < 0.01 µM | < 0.01 µM (active) | < 0.01 µM (active) | < 0.01 µM (active) | < 0.01 µM (active) | < 0.01 µM (active) | < 0.01 µM (active) | < 0.01 µM (active) | < 0.01 µM (active) | < 0.01 µM (active) | < 0.01 µM (active) | < 0.01 µM (active) | < 0.01 µM (active) | < 0.01 µM (active) | < 0.01 µM (active) | < 0.01 µM (active) | < 0.01 µM (active)
6 | CCOC(=O)C1(C(=O)OCC)C[C@H]2CON=C2[C@@H]1c1ccc(C(F)(F)F)cc1 | 46.9 µM (inactive) | 26.2 µM (inactive) | 29.6 µM (inactive) | 38.6 µM | 21.9 µM (inactive) | 82.6 µM (inactive) | 38.6 µM (inactive) | 45.7 µM (inactive) | 58.7 µM (inactive) | 42.9 µM (inactive) | 24.7 µM (inactive) | 32.6 µM (inactive) | 72.6 µM (inactive) | 26.5 µM (inactive) | > 100 µM (inactive) | > 100 µM (inactive) | 62.2 µM (inactive) | 94.8 µM (inactive) | > 100 µM (inactive) | 64.7 µM (inactive)
7 | COc1cc(/N=N/c2cccc(S(N)(=O)=O)c2)c2ccccc2c1N | 13.4 µM (inactive) | 13 µM (inactive) | 14.7 µM (inactive) | 18.2 µM | 7.35 µM (inactive) | 12.9 µM (inactive) | 2 µM (inactive) | 2.41 µM (inactive) | 2.02 µM (inactive) | 9.98 µM (inactive) | 12.1 µM (inactive) | 22 µM (inactive) | 17.5 µM (inactive) | 16.3 µM (inactive) | 15 µM (inactive) | 3.05 µM (inactive) | 2.26 µM (inactive) | 8.89 µM (inactive) | 14.6 µM (inactive) | 7.48 µM (inactive)
